Reference: publication PMC4774911, “Biochemical Screening of Five Protein Kinases from Plasmodium falciparum against 14,000 Cell-Active Compounds” (PLoS ONE, 2016)
“And” between values parts separate entries of the source, which are not always exact repeats. Equal values may be shown once.

Key:
Assay in all cases: biochemical
Design in all cases: endogenous in cells; host or cells: K562 cell extract; species or system K562 (extract); replicate k of n = 2 (each experiment ID is one independent experiment; two experiment IDs per compound)
Settings in all cases: read-out: KDapp
NEK6 = NEK6 (Homo sapiens, UniProt Q9HC98)
MAP3K7 = target: T1, MAP3K7 (Homo sapiens, UniProt O43318)
T1 sequence (O43318 1-606): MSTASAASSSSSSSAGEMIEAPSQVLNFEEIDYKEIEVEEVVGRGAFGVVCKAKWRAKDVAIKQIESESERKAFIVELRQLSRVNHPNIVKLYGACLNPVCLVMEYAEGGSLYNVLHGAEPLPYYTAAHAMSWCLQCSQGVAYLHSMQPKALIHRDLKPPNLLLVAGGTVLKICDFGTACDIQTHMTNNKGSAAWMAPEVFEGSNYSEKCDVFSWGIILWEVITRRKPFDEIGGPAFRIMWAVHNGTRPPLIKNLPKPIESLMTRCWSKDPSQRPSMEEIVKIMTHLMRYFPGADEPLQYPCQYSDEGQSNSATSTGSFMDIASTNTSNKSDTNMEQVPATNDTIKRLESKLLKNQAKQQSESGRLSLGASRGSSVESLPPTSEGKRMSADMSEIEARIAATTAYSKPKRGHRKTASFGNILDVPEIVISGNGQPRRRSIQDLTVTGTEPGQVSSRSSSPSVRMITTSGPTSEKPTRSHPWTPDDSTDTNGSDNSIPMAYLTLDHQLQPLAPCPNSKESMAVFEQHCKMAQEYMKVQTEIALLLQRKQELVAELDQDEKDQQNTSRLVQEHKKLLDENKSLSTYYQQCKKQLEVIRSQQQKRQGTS

NEK9 = target: T2, NEK9 (Homo sapiens, UniProt Q8TD19)
T2 sequence (Q8TD19 1-979): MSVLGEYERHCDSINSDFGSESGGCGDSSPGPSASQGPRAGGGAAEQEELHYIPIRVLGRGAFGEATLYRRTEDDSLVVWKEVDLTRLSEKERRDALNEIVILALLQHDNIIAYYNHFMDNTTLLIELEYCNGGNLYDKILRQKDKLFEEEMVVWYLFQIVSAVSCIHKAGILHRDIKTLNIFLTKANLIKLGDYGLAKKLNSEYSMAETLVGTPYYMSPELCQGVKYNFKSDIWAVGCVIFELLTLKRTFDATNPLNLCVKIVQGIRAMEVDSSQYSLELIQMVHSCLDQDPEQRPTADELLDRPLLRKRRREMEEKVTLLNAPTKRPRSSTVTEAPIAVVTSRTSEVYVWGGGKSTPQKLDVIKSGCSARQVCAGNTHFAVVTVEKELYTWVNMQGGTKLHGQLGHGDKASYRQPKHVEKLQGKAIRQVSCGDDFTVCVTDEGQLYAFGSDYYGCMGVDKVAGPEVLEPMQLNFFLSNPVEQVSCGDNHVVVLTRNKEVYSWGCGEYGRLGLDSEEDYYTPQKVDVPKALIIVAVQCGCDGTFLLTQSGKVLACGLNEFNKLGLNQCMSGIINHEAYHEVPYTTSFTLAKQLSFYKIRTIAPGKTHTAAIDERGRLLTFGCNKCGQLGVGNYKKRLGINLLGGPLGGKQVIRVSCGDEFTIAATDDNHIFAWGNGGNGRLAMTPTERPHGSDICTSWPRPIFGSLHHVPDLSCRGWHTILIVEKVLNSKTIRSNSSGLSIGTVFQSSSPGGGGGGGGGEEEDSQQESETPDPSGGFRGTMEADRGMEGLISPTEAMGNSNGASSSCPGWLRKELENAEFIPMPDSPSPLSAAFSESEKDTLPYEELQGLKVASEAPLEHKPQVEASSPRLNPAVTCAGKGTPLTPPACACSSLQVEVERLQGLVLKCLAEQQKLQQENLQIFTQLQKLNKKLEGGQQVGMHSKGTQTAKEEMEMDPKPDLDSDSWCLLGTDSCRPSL

PKMYT1 = target: T3, PKMYT1 (Homo sapiens, UniProt Q99640)
T3 sequence (Q99640 1-499): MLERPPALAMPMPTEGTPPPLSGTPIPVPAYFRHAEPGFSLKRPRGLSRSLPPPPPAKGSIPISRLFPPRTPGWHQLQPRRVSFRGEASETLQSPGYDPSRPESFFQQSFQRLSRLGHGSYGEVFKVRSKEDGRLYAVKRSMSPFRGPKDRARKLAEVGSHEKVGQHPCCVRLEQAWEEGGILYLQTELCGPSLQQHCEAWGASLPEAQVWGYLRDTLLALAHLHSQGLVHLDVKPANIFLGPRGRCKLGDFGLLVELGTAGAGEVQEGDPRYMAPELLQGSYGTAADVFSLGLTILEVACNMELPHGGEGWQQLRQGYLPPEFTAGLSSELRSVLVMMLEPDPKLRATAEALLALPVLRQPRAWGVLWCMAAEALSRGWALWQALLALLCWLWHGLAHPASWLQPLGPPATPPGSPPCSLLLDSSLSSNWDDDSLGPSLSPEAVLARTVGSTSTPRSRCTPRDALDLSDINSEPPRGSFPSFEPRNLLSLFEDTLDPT

CDC2 = CDC2 (Homo sapiens, UniProt P06493)
Sequence of CDC2 (P06493 whole entry): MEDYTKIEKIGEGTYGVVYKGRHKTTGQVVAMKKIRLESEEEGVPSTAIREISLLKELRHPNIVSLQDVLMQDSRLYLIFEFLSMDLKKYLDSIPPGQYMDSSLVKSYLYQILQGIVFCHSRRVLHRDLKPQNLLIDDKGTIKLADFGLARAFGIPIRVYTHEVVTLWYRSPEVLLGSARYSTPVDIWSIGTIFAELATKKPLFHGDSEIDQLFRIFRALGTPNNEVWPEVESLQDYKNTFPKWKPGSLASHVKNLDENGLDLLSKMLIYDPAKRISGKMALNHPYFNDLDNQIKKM

Sequence of NEK6 (Q9HC98 whole entry): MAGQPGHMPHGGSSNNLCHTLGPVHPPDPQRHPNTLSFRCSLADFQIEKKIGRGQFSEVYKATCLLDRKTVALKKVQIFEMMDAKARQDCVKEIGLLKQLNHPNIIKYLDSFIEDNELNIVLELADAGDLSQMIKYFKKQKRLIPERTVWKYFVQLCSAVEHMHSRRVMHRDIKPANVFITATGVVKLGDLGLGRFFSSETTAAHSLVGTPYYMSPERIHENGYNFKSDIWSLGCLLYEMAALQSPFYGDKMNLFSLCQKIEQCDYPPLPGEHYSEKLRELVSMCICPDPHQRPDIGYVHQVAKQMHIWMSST

With `CN1CCN(c2ccc(Nc3ncc(C#N)c(Nc4ccccc4C(N)=O)n3)cc2)CC1.Cl` [TCMDC-134116] the Kd (NEK6) was 160 nM, the Kd (MAP3K7) was 1470 nM and 808 nM and the Kd (NEK9) was 396 nM and 299 nM. The Kd (PKMYT1) was 888 nM and 596 nM and the Kd (CDC2) was 1210 nM.
